According to US20080242726A1 (priority 2004, published 2008):

Columns and labels:
serum cholesterol = experiment: Effects on cholesterol levels in male baboons; type: in vivo; settings: 1.5 mg/kg for 12 days
Excerpt: (§1) The samples analyzed were sera taken on the day of first treatment before being given test article (day 0), after 12 days of treatment (day 12) and 7 days after the last treatment (end or wash-out).

total serum testosterone = experiment: Effects of Clomids on serum testosterone in male baboons; type: in vivo; settings: 1.5 mg/kg for 12 days
Excerpt: as §1

total testosterone = experiment: Comparison of Androxal to Androgel in hypogonadal men: total testosterone; type: in vivo; settings: two weeks
Procedure: (§2) A placebo controlled challenge study was conducted at the Advanced Biological Research, Inc. (ABR) Clinical Research Center in Hackensack, N.J. to compare orally administered Androxal™ (trans-clomiphene) to Androgel® (testosterone) in hypogonadal men. Androgel® (Solvay Pharmaceuticals, Inc.) consists of a cream that administers exogenous testosterone in a transdermal matrix.
(§3) The study enrolled 62 hypogonadal men with testosterone levels less than 300 ng/dl (normal 298-1034 ng/dl) that were randomized into 6 different arms, three doses of Androxal™ (12.5 mg, 25 mg, and 50 mg), placebo, and both high and low doses of Androgel®. Half of the men in each of the Androxal™ and placebo arms were randomized into cohorts that underwent in-clinic sessions on days 1 and 14 to determine pharmacokinetic parameters for Androxal™ as well as cyclical changes in testosterone. The placebo and Androxal™ doses were administered in a double blind fashion. The Androgel® cream was administered in an open label fashion. Half of the Androgel® patients underwent in-clinic sessions similar to the other patients in the study. Following the two week drug exposure patients were followed for an additional seven to ten days to determine the status of their testosterone levels.

serum prolactin (PRL) = experiment: Effects on serum prolactin (PRL) in male baboons; type: in vivo; settings: 1.5 mg/kg for 12 days
Excerpt: as §1

[1] = Excerpt: as §1
[2] = Comparison of Androxal to Androgel in hypogonadal men: side effects; type: in vivo; settings: two week exposure, compared with placebo
Procedure: as §2, §3

Row | Structure (SMILES) | trend of serum cholesterol (serum cholesterol) | effect on total serum testosterone (total serum testosterone) | mean increase of testosterone from baseline (total testosterone; high dose 50 mg oral) [ng/dL] | mean increase of testosterone from baseline (total testosterone; low dose 12.5 mg oral) [ng/dL] | mean increase of testosterone from baseline (total testosterone; mid dose 25 mg oral) [ng/dL] | serum prolactin (PRL) during the study (serum prolactin (PRL)) | effect on platelets ([1]; 12-day treatment) | counts of eosinophiles ([1]; male baboons) | side effects [2]
1 | CCN(CC)CCOc1ccc(C(=C(Cl)c2ccccc2)c2ccccc2)cc1 [Clomid, clomiphene] | slight increase | more variable total testosterone levels | – | – | – | – | – | – | –
2 | CCN(CC)CCOc1ccc(/C(=C(\Cl)c2ccccc2)c2ccccc2)cc1 [Enclomid, trans-clomiphene] | tended to decrease | significant increases | 294 | 169 | 247 | decrease | clear effect | raising the counts | no side effects
3 | CCN(CC)CCOc1ccc(/C(=C(/Cl)c2ccccc2)c2ccccc2)cc1 [Zuclomid, cis-clomiphene] | tended to increase | did not raise total serum testosterone to any extent | – | – | – | – | – | – | –
